pIC50: −log10 of the molar value. Blank lines part the entries; values can stand above or below the molecule they belong to.
How the values were obtained:
NF-κB = NF-κB transcriptional activity in TNFα-induced HeLa cells; format: cell-based; conditions: Homo sapiens, 1 h pre-treatment, then 4 h of 20 ng/mL TNFα, average of three experiments, read-out: IC50, inhibition of NF-κB transcriptional activity
Experimental: The compounds were tested on HeLa (adenocarcinoma) cells to quantify their ability to inhibit NF-κB transcriptional activity. NF-κB activity was induced in HeLa cells by TNFα, and then the compounds were added to inhibit the induced NF-κB activity. Half maximal inhibitory concentrations (IC50) of several compounds, namely Compound 1, Compound 2 and Compound 12, were determined by dose response studies.
HeLa cells were plated in a 12-well plate (200,000 cells/well) and cultured in Eagle's Minimal Essential medium (EMEM) from Lonza supplemented with 10% heat-inactivated fetal bovine serum (Invitrogen) and 50 μg/mL penicillin/streptomycin (Invitrogen), and were left overnight to attach. Cells were pre-treated with serial diluted (started at 30 µM; 1:3 dilution) compounds for 1 h and then exposed to 20 ng/mL TNFα (Peprotech) for 4 h in serum free media. After the treatment, the cells were washed with PBS (Invitrogen), and lysed with RIPA buffer (Themo Scientific). The transcription activity of NF-κB in the cells was measured by Chemiluminescent Transcription Factor Assay kit (Thermo Scientific Catalog #89859), according to the manufacturer's instruction. Briefly, 1.5 mg/mL of RIPA lysed whole cell extract from each treatment were incubated in a 96-well plate bound with NF-κB biotinylated-consensus sequence. The active NF-κB transcription factor bound to the consensus sequence was incubated with NF-κB p65 primary antibody and then with a secondary HRP-conjugated antibody. A chemiluminescent substrate was added to the wells and the resulting signal was detected using a luminometer. Three separate experiments were analyzed for each concentration of the IC50 curves. XLFit model 205 was used to calculate IC50 curves.
Inhibition of NF-κB transcriptional activity was measured by serial dilutions of Compound 1, Compound 2 and Compound 12 after 1 h of compound pre-treatment followed by 4 h of 20 ng/mL TNFα exposure. Three independent experiments were scored for each concentration, with the average being presented here.

[1] = Pharmacokinetics (plasma AUCInf) in mice; format: in vivo; conditions: 10 mg/kg po
Experimental: Blood was collected from mice (N=3) to contribute to the total of 10 time points (pre-dose, 5 min, 15 min, 30 min, 1 hour, 2 hours, 4 hours, 8 hours, 12 hours and 24 hours post dose). Mice were bled on a rotating basis, each mouse contributing 3 time points to the blood collection. At the designated time points, animals were anaesthetized under isoflurane, and approximately 110 μL of blood per time point was collected via retro-orbital puncture into pre-cooled K2EDTA (anti-coagulant) tubes. Blood samples were put on wet ice and centrifuged (2000 g, 5 min at 4° C.) to obtain plasma within 30 minutes of sample collection. All samples were stored frozen at approximately −80° C. until analysis. Prior to analysis, samples were mixed with internal standard (dexamethasone) in acetonitrile, vortexed, centrifuged, and supernatant was injected for analysis. Concentration of compounds in plasma was determined using LC-MS-MS instrumentation (API 4000, Triple Quadruple with electrospray ionization; Acuity Ultra Performance Liquid Chromatography column C18, with MeOH and formic acid as organic solvents). PK parameters including but not limited to Tmax, Cmax, t1/2, AUClast, AUCInf were calculated using WinNonlin Professional 6.2 software package, non-compartmental pharmacokinetic model NCA200.

[2] = Brain to plasma ratio (B:P) in mice; format: in vivo
Experimental: Brain tissue following collection was rinsed with cold saline, dried on filter paper, weighed and snap-frozen by placing on dry ice. All samples were stored frozen at approximately −80° C. until analysis. […] Plasma samples were treated with the identical method (except homogenization step) and concentration of compound in either matrix was calculated based on the generated standard curves.

A549 xenograft tumors = test: A549 lung carcinoma xenograft in SCID mice; format: in vivo; conditions: for mean tumor volume: 5 mg/kg IP Days 1, 15
Experimental: The A549 cell line was derived from explant culture of alveolar carcinoma tissue from a person. The cells were grown in Ham's F12-K tissue culture media with 10% fetal calf serum and 1% penicillin/streptomycin. Cells were routinely trypsinized and passaged 1:10. Thirty-two (32) female CB-17 SCID mice (Charles River Labs strain code 236), aged 5 to 6 weeks were used with a mean pre-treatment body weight of 16.3 grams. Mice were divided into four (4) groups of eight (8) prior to the initiation of treatment based on tumor volume. On the day of implantation, cells were washed in PBS, trypsinized and resuspended in complete media to a density of 2×10^7 cells/mL prior to being mixed with an equal volume of Matrigel. This mixture was then inoculated subcutaneously into mice in a volume of 0.1 mL using a 23G needle.
Animal weights and condition were recorded daily, and tumors were measured on Mondays, Wednesdays and Fridays with micro-calipers, and tumor volume was calculated as (length×width×width)/2.
Animals with weight loss of more than 20% of their starting weight were euthanized. Mice with weight loss of more than 15% of their starting weight were not treated again until weight loss recovered to less than 5% of their starting weight. Any animals with a tumor volume of more than 1500 mm^3 were euthanized.
Dosing solutions were prepared fresh on each day of dosing. Compound 2 was supplied as a lyophilized powder containing 69.61% Compound 2 with the balance made up of Pluronic F-68 and PVP K29/32. This was prepared by dissolving the lyophilized powder in sterile water. Cisplatin was dissolved at 5 mg/mL in DMSO and diluted 1:10 in sterile water for injection. All test articles were administered in a volume of 0.1 mL/10 g body weight.
Statistical differences between treatment groups were determined using Mann-Whitney Rank Sum or ANOVA tests with a critical value of 0.05.

IMQ-induced psoriasis = test: Imiquimod (IMQ)-induced dermal inflammation/psoriasis model, Study 2; format: in vivo, mice; conditions: Compound 2 2.5 mg/kg, cyclophosphamide 10 mg/kg
Experimental: Forty (40) male BALB/c mice (Biological E Limited, Hyderabad (CPCSEA registration number: 36/99/CPCSEA)) were divided into four (4) groups consisting of ten (10) mice each. Animals were randomized based on their body weight. The groups were designated as Group-I (Naïve), Group-II (IMQ; vehicle (PEG 400 and HPBCD)), Group-III (IMQ; Compound 2 (2.5 mg/kg)) and […] (IMQ; cyclophosphamide (10 mg/kg)).
A small area on the dorsum of each mouse was shaved, ensuring that these areas were of equal size/area. Psoriasis was induced in Groups II to IV by topical application of 50 mg of IMQ cream daily from Day 1 to Day 6 on the dorsum of the animals. On Day 1 and Day 2 of the study, four hours after topical application of IMQ, Compound 2 or positive control (cyclophosphamide) or vehicle were administered to animals in pertinent groups. Of note, animals in Group II and Group III were subjected to subcutaneous injections, whereas animals in Group IV received oral administration. The Compound 2, vehicle and cyclophosphamide treatment was terminated on Day 2. These groups of animals were maintained on daily IMQ treatments until Day 6. On Day 7, the psoriasis-induced animals were re-randomized into 3 groups consisting of 10 animals each based on Cumulative Disease Activity Index (CDAI). From Day 7 to Day 9, animals received vehicle or positive control or Compound 2. Of note, on these days animals were not treated with IMQ. From Day 10 to Day 14, the animals were treated alternatively with IMQ (Days 10, 12 and 14), or vehicle, positive control or Compound 2 (Days 11, 13).
All animals were observed daily for a period of 16 days for gross observations, body weight and feed and water intake. On Days 1 and 2, scorings of erythema, scaling, folding and thickening of skin were recorded 2 hours after administration of vehicle/positive control/test compounds, and on Days 3 to 14 scorings were recorded 4 hours after IMQ application, or administration of positive control, vehicle or Compound 2.
Vehicle was prepared by dissolving 40 mg of HPBCD in 70.0 mL of distilled water. Compound 2 was prepared by dissolving 3.59 mg in 0.5% PVP and 0.5% Pluronic. Cyclophosphamide was prepared by dissolving 500 mg of CMC in 100 mL distilled water.
The experimental results shown in Table 10 are expressed as mean±SEM. Data was assessed using one-way ANOVA, and post hoc analysis was performed using Dunnett's test.

Structure (SMILES): O=C(/C=C\n1cnc(-c2cc(C(F)(F)F)cc(C(F)(F)F)c2)n1)NNC(=O)C(=O)N1CCOCC1 [Compound 12, (Z)-3-(3-(3,5-bis(trifluoromethyl)phenyl)-1H-1,2,4-triazol-1-yl)-N′-(2-morpholino-2-oxoacetyl)acrylohydrazide]
pIC50 (NF-κB): 5.84

Structure (SMILES): N.N.[Cl][Pt][Cl] [cisplatin, reference compound]
tumor growth versus vehicle control group (mean AUC of tumor volume, one-way ANOVA) (A549 xenograft tumors; Compound 2 5 or 10 mg/kg PO, cisplatin 5 mg/kg IP): no statistically significant reduction in tumor growth
mean tumor volume (A549 xenograft tumors; Day 1): 104 mm^3
mean tumor volume (A549 xenograft tumors; Day 29): 1136 mm^3

Structure (SMILES): O=P1(N(CCCl)CCCl)NCCCO1 (stereo not drawn) [cyclophosphamide, reference compound]
Rate of reduction of DAI, % change from 1st dose administration (IMQ-induced psoriasis; Day 7, 4 hr. post-IMQ/drug administration readings): 23.3%
Rate of reduction of DAI, % change from 1st dose administration (IMQ-induced psoriasis; Day 7, pre-IMQ/drug administration readings): 0.0%
Rate of reduction of DAI, % change from 1st dose administration (IMQ-induced psoriasis; Day 8, 4 hr. post-IMQ/drug administration readings): 20.9%
Rate of reduction of DAI, % change from 1st dose administration (IMQ-induced psoriasis; Day 8, pre-IMQ/drug administration readings): 16.3%
Rate of reduction of DAI, % change from 1st dose administration (IMQ-induced psoriasis; Day 9, 4 hr. post-IMQ/drug administration readings): −41.9%
Rate of reduction of DAI, % change from 1st dose administration (IMQ-induced psoriasis; Day 9, pre-IMQ/drug administration readings): −39.5%
Rate of reduction of DAI, % change from 1st dose administration (IMQ-induced psoriasis; Day 10, 4 hr. post-IMQ/drug administration readings): −86.0%
Rate of reduction of DAI, % change from 1st dose administration (IMQ-induced psoriasis; Day 10, pre-IMQ/drug administration readings): −79.1%
Rate of reduction of DAI, % change from 1st dose administration (IMQ-induced psoriasis; Day 11, 4 hr. post-IMQ/drug administration readings): −25.6%
Rate of reduction of DAI, % change from 1st dose administration (IMQ-induced psoriasis; Day 11, pre-IMQ/drug administration readings): −25.6%
Rate of reduction of DAI, % change from 1st dose administration (IMQ-induced psoriasis; Day 12, 4 hr. post-IMQ/drug administration readings): −34.9%
Rate of reduction of DAI, % change from 1st dose administration (IMQ-induced psoriasis; Day 12, pre-IMQ/drug administration readings): −39.5%
Rate of reduction of DAI, % change from 1st dose administration (IMQ-induced psoriasis; Day 13, 4 hr. post-IMQ/drug administration readings): −32.6%
Rate of reduction of DAI, % change from 1st dose administration (IMQ-induced psoriasis; Day 13, pre-IMQ/drug administration readings): −25.6%
Rate of reduction of DAI, % change from 1st dose administration (IMQ-induced psoriasis; Day 14, 4 hr. post-IMQ/drug administration readings): −32.6%
Rate of reduction of DAI, % change from 1st dose administration (IMQ-induced psoriasis; Day 14, pre-IMQ/drug administration readings): −34.9%
Rate of reduction of DAI, % change from 1st dose administration (IMQ-induced psoriasis; Day 15, pre-IMQ/drug administration readings): −41.9%

Continued, values first:

AUCInf [1]: below the limit of detection
levels in the brain ([2]; dosed po): below the quantitation limit
Structure (SMILES): COc1cc(-c2ncn(/C=C\C(=O)OC(C)C)n2)cc(C(F)(F)F)c1 [Compound X-1]

B:P ([2]; mice, 10 mg/kg po, 2 hours post-dose): 5.0
Structure (SMILES): O=C(/C=C\n1cnc(-c2cc(C(F)(F)F)cc(C(F)(F)F)c2)n1)N1CC(F)(F)C1 [Compound X-3]

— patent publication US10617677B2, “Nuclear transport modulators and uses thereof” (Biogen MA Inc., priority 2012, dated 2020)
